Assay results reported in publication PMC7413254 (Nature Communications, 2020).
Like-named read-outs stand apart in the source and are kept apart here.

Columns and labels:
[1] = target: T1, PfCRT^Dd2 (Plasmodium falciparum, UniProt Q9N623, A220S/I356T/K76T/M74I/N326S/N75E/Q271E/R371I); test: [3H]CQ uptake into Xenopus oocytes, cis-inhibition by unlabelled solute; format: cell-based
Summary of the method: (§1)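 Assay buffer ND96 (10 mM MES, 10 mM Tris-base) held at pH 5.5 to mimic vacuole lumen; uptake measured inward from this acidic medium over 1.5 h at 27.5 °C.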

[2] = target: T2, PfCRT^Ecu1110 (Plasmodium falciparum, UniProt Q9N623, A220S/I356L/K76T/N326D); test: as above; format: cell-based
T2 sequence (Q9N623 whole entry A220S/I356L/K76T/N326D): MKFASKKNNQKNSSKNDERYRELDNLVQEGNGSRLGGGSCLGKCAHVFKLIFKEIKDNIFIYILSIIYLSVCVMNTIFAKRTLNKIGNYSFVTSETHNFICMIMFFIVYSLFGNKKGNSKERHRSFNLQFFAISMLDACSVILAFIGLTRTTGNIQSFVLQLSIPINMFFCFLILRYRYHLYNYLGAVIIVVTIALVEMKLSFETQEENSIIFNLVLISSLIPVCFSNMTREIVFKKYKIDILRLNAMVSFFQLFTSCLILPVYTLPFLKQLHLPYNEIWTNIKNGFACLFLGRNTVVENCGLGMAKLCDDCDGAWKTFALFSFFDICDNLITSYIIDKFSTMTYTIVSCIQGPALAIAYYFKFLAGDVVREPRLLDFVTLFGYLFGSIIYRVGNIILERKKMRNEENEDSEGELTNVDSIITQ
Summary of the method: as §1

[3] = target: T3, PfCRT^3D7 (Plasmodium falciparum, UniProt Q8IBZ9); test: cell-based; format: cell-based; settings: total [3H]CQ transport; for inhibition at 500 µM: [test solute] = 0.5 mM; for inhibition at 1000 µM: [test solute] = 1 mM; for inhibition at 2000 µM: [test solute] = 2 mM
T3 sequence (Q8IBZ9 59-398): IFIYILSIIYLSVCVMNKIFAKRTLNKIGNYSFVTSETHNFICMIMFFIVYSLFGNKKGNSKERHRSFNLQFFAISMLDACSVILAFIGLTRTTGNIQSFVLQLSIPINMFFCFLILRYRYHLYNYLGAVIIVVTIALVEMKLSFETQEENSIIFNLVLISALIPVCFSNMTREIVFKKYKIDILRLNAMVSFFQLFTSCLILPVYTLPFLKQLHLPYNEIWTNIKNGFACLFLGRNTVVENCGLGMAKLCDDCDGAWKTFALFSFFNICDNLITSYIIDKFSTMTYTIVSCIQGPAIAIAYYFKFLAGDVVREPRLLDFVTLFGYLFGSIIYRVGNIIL
Summary of the method: as §1

[4] = test system: non-expressing oocytes; test: cells; format: cell-based, Xenopus laevis; settings: Xenopus laevis, total [3H]CQ transport; for inhibition at 500 µM: [test solute] = 0.5 mM; for inhibition at 1000 µM: [test solute] = 1 mM; for inhibition at 2000 µM: [test solute] = 2 mM
Summary of the method: as §1

[5] = test system: PfCRT; test: Potential co-substrates tested for influx of VF-6 via PfCRT into the oocyte; format: cell-based, Plasmodium falciparum; set-up: key: X: Compounds that have been tested as potential co-substrates but are not required for influx of VF-6 via PfCRT into the oocyte
[6] = test system: non-expressing oocytes; format: cell-based, Xenopus laevis; settings: total [3H]CQ transport; for Uptake of [3H]CQ (% non-expressing oocyte control), trans-stimulation: non-expressing oocytes, normalised to the oocyte type control; for Uptake of [3H]CQ (% PfCRTDd2 control), trans-stimulation, non-expressing oocytes: mean ± SEM, SEM
Summary of the method: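 Oocytes (ten per treatment, ≥4 independent frogs/days) were preloaded by injecting VF-6 in 25 nL ND96 at pH 5.0, 5.5, 6.0 or 7.0, or Na^+-free choline buffer, then uptake run 1.5 h, 27.5 °C, ND96 pH 5.5 by default. Internal concentrations assumed ~400 nL oocyte volume.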

[7] = test system: PfCRT; test: Test of solutes as potential co-substrates for influx of VF-6 via PfCRT into the oocyte; format: cell-based, Plasmodium falciparum; set-up: key: X: Compounds that have been tested as potential co-substrates but are not required for influx of VF-6 via PfCRT into the oocyte; settings: X = tested
[8] = target: T4, PfNT1 (Plasmodium falciparum, UniProt Q8IDM6); test: cell-based; format: cell-based; settings: for activity at 5000 µM: total [3H]CQ transport
T4 construct: expressed in transfected cells; host or cells: Xenopus laevis oocytes (stage V-VI), cRNA-injected
T4 sequence (Q8IDM6 whole entry): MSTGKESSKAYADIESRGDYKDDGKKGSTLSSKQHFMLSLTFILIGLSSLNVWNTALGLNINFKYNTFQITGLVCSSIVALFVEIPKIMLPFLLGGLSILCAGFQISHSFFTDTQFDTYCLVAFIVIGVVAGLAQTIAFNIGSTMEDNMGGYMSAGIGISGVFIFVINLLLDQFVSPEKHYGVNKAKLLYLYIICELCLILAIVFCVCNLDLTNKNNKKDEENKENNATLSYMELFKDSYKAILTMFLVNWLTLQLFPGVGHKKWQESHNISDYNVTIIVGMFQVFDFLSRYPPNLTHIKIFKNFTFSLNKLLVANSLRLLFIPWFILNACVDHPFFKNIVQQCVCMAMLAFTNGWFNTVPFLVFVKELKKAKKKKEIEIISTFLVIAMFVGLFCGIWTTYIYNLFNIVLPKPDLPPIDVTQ
Summary of the method: (§2)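 Transport measured in Xenopus oocytes expressing the transporters, 1.5 h at 27.5 °C in ND96 pH 5.5 unless noted. For trans-stimulation, VF-6 injected in 25 nL ND96 at pH 5.0–7.0 or Na^+-free (choline) buffer; intracellular levels based on ~400 nL oocyte volume. Ten oocytes per treatment, ≥4 experiments.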

[9] = target: T3, PfCRT^3D7; test: cell-based; format: cell-based
Summary of the method: as §2

[10] = target: T1, PfCRT^Dd2; test: cell-based; format: cell-based; settings: […]; for activity at 45000 µM: [test solute]i = 45 mM (30 mM for some solutes due to solubility)
Summary of the method: as §2

[11] = target: T2, PfCRT^Ecu1110; test: cell-based; format: cell-based; settings: […]
Summary of the method: as §2

[12] = read-out: PfCRT-mediated [3H]CQ transport, cis-inhibition (% PfCRTDd2 control)
[13] = read-out: Uptake of [3H]CQ (% PfCRTDd2 control), cis-inhibition
[14] = read-out: Uptake of [3H]CQ (% PfCRTDd2 control), cis-inhibition, PfCRTDd2, SEM
[15] = read-out: [3H]CQ transport (% PfCRTDd2 control), cis-inhibition, PfCRTDd2, SEM
[16] = read-out: PfCRT-mediated [3H]CQ transport, cis-inhibition (% PfCRTEcu1110 control)
[17] = read-out: Uptake of [3H]CQ (% PfCRTDd2 control), cis-inhibition, PfCRTEcu1110, SEM
[18] = read-out: Uptake of [3H]CQ (% PfCRTEcu1110 control), cis-inhibition
[19] = read-out: [3H]CQ transport (% PfCRTEcu1110 control), cis-inhibition, PfCRTEcu1110, SEM
[20] = PfCRT3D7 oocytes, normalised to the oocyte type control, read-out: Uptake of [3H]CQ (% PfCRT3D7 control), cis-inhibition
[21] = mean ± SEM, SEM, read-out: Uptake of [3H]CQ (% PfCRTDd2 control), cis-inhibition, PfCRT3D7
[22] = Oocyte, mean ± SEM, SEM, read-out: Uptake of [3H]CQ (% PfCRTDd2 control), cis-inhibition, non-expressing oocytes
[23] = non-expressing oocytes, normalised to the oocyte type control, read-out: Uptake of [3H]CQ (% non-expressing oocyte control), cis-inhibition

T1 sequence (Q9N623 whole entry A220S/I356T/K76T/M74I/N326S/N75E/Q271E/R371I): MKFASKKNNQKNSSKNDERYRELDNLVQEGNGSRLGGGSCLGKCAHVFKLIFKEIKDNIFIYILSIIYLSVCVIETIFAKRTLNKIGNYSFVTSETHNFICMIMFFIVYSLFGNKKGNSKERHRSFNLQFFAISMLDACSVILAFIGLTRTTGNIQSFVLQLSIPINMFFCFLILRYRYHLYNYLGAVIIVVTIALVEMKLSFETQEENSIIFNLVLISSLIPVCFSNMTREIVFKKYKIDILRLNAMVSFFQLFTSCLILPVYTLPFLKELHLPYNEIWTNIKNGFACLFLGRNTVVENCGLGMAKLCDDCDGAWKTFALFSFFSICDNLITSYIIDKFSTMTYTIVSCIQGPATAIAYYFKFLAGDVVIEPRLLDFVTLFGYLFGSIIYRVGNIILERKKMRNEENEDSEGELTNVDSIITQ

## CC(C)C[C@H](N)C(=O)O [L-leucine]
[1]; [12]
  inhibition at 500 µM: 98 ± 4.7%
  inhibition at 1000 µM: 96 ± 4.2%
  inhibition at 2000 µM: 98 ± 4.7%
[1]; [13]
  inhibition at 500 µM: 100 ± 3.8%
  inhibition at 1000 µM: 98 ± 3.1%
  inhibition at 2000 µM: 100 ± 1.9%
[1]; [14]
  inhibition at 500 µM: 100 ± 3.8%
  inhibition at 1000 µM: 98 ± 3.1%
  inhibition at 2000 µM: 100 ± 1.9%
[1]; [15]
  inhibition at 500 µM: 98 ± 4.7%
  inhibition at 2000 µM: 98 ± 4.7%
[2]; [16]
  inhibition at 500 µM: 99 ± 5.1%
  inhibition at 1000 µM: 97 ± 3.1%
  inhibition at 2000 µM: 99 ± 2.1%
[2]; [17]
  inhibition at 500 µM: 33 ± 1.6%
  inhibition at 1000 µM: 32 ± 1.3%
  inhibition at 2000 µM: 33 ± 1.5%
[2]; [18]
  inhibition at 500 µM: 102 ± 4.2%
  inhibition at 1000 µM: 98 ± 4.2%
  inhibition at 2000 µM: 100 ± 3.2%
[2]; [19]
  inhibition at 500 µM: 30 ± 1.5%
  inhibition at 1000 µM: 29 ± 0.6%
  inhibition at 2000 µM: 30 ± 0.7%
[3]; [20]
  inhibition at 500 µM: 98 ± 3.6%
  inhibition at 1000 µM: 100 ± 4.7%
  inhibition at 2000 µM: 99 ± 3.6%
[3]; [21]
  inhibition at 500 µM: 3.2 ± 0.08%
  inhibition at 1000 µM: 3.1 ± 0.08%
  inhibition at 2000 µM: 3.8 ± 0.05%
[4]; [22]
  inhibition at 500 µM: 3.2 ± 0.08%
  inhibition at 1000 µM: 2.8 ± 0.07%
  inhibition at 2000 µM: 2.9 ± 0.04%
[4]; [23]
  inhibition at 500 µM: 100 ± 3.7%
  inhibition at 1000 µM: 99 ± 4.6%
  inhibition at 2000 µM: 99 ± 5.7%
[5]
  Tested as potential co-substrate but not required for influx of VF-6 via PfCRT into the oocyte: X
[6]; [test solute]i = 5 mM
  Uptake of [3H]CQ (% non-expressing oocyte control), trans-stimulation: 100 ± 3.2 % non-expressing oocyte control
[6]; [test solute]i = 45 mM (30 mM for some solutes due to solubility)
  Uptake of [3H]CQ (% non-expressing oocyte control), trans-stimulation: 100 ± 3.3 % non-expressing oocyte control
[6]; [test solute]i = 5 mM (intracellular)
  Uptake of [3H]CQ (% PfCRTDd2 control), trans-stimulation, non-expressing oocytes: 3.2 ± 0.08 % PfCRTDd2 control
[6]; [test solute]i = 45 mM (intracellular; 30 mM for some solutes due to solubility)
  Uptake of [3H]CQ (% PfCRTDd2 control), trans-stimulation, non-expressing oocytes: 3.2 ± 0.05 % PfCRTDd2 control
[7]
  Tested as potential co-substrate but not required for influx of VF-6 via PfCRT into the oocyte: X
[8]; PfNT1 oocytes, [test solute]i = 5 mM, normalised to the oocyte type control, read-out: Uptake of [3H]CQ (% PfNT1 control), trans-stimulation
  activity at 5000 µM: 100 ± 3.8%
[8]; SEM, read-out: Uptake of [3H]CQ (% PfCRTDd2 control), trans-stimulation, PfNT1
  activity at 45000 µM: 2.3 ± 0.09%
[8]; read-out: Uptake of [3H]CQ (% PfNT1 control), trans-stimulation
  activity at 45000 µM: 98 ± 3.3%
[8]; [test solute]i = 5 mM (intracellular), mean ± SEM, SEM, read-out: Uptake of [3H]CQ (% PfCRTDd2 control), trans-stimulation, PfNT1
  activity at 5000 µM: 3%
[9]; PfCRT3D7 oocytes, [test solute]i = 5 mM, total [3H]CQ transport, normalised to the oocyte type control, read-out: Uptake of [3H]CQ (% PfCRT3D7 control), trans-stimulation
  activity at 5000 µM: 100 ± 2.4%
[9]; SEM
  [3H]CQ transport (% PfCRT3D7 control), trans-stimulation, PfCRT3D7: 0.3 ± 0.02 % PfCRT3D7 control
[9]; [test solute]i = 5 mM (intracellular), PfCRT3D7 oocytes, normalised to oocyte type control, read-out: PfCRT-mediated [3H]CQ transport, trans-stimulation (% PfCRT3D7 control)
  activity at 5000 µM: 98 ± 3.4%
[9]; SEM, read-out: Uptake of [3H]CQ (% PfCRTDd2 control), trans-stimulation, PfCRT3D7
  activity at 45000 µM: 3.2 ± 0.04%
[9]; read-out: PfCRT-mediated [3H]CQ transport, trans-stimulation (% PfCRT3D7 control)
  activity at 45000 µM: 95 ± 4.1%
[9]; read-out: Uptake of [3H]CQ (% PfCRT3D7 control), trans-stimulation
  activity at 45000 µM: 97 ± 2.8%
[9]; total [3H]CQ transport, [test solute]i = 5 mM (intracellular), mean ± SEM, SEM, read-out: Uptake of [3H]CQ (% PfCRTDd2 control), trans-stimulation, PfCRT3D7
  activity at 5000 µM: 3.3 ± 0.03%
[10]; pH 5.5, read-out: PfCRT-mediated [3H]CQ transport, trans-stimulation (% PfCRTDd2 control), [test solute]i = 5 mM (intracellular), PfCRTDd2 oocytes, normalised to oocyte type control
  activity at 5000 µM: 95 ± 3.4%
[10]; pH 5.5, read-out: Uptake of [3H]CQ (% PfCRTDd2 control), trans-stimulation, PfCRTDd2, total [3H]CQ transport, [test solute]i = 5 mM (intracellular), mean ± SEM, SEM
  activity at 5000 µM: 97 ± 0.7%
[10]; pH 5.5, read-out: Uptake of [3H]CQ (% PfCRTDd2 control), trans-stimulation, PfCRTDd2 oocytes, [test solute]i = 5 mM, total [3H]CQ transport, normalised to the oocyte type control
  activity at 5000 µM: 97 ± 0.7%
[10]; pH 5.5, read-out: Uptake of [3H]CQ (% PfCRTDd2 control), trans-stimulation, PfCRTDd2 oocytes, total [3H]CQ transport, normalised to the oocyte type control
  activity at 45000 µM: 98 ± 2.2%
[10]; pH 5.5, read-out: [3H]CQ transport (% PfCRTDd2 control), trans-stimulation, PfCRTDd2, trans-stimulation, [test solute]i = 5 mM (injected), PfCRT-mediated component (background subtracted), mean ± SEM, SEM
  activity at 5000 µM: 95 ± 3.4%
[10]; pH 5.5, read-out: [3H]CQ transport (% PfCRTDd2 control), trans-stimulation, PfCRTDd2, trans-stimulation, PfCRT-mediated component (background subtracted), mean ± SEM, SEM
  activity at 45000 µM: 96 ± 2.9%
[11]; pH 5.5, read-out: PfCRT-mediated [3H]CQ transport, trans-stimulation (% PfCRTEcu1110 control), [test solute]i = 5 mM (intracellular), PfCRTEcu1110 oocytes, normalised to oocyte type control
  activity at 5000 µM: 96 ± 2.6%
[11]; pH 5.5, read-out: Uptake of [3H]CQ (% PfCRTEcu1110 control), trans-stimulation, PfCRTEcu1110 oocytes, [test solute]i = 5 mM, total [3H]CQ transport, normalised to the oocyte type control
  activity at 5000 µM: 98 ± 3.2%
[11]; pH 5.5, read-out: Uptake of [3H]CQ (% PfCRTEcu1110 control), trans-stimulation, PfCRTEcu1110 oocytes, [test solute]i = 45 mM (30 mM for some solutes due to solubility), total [3H]CQ transport, normalised to the oocyte type control
  activity at 45000 µM: 100 ± 3.5%
[11]; read-out: Uptake of [3H]CQ (% PfCRTDd2 control), trans-stimulation, PfCRTEcu1110, total [3H]CQ transport, [test solute]i = 5 mM (intracellular), mean ± SEM, SEM
  activity at 5000 µM: 35 ± 1.3%
[11]; read-out: Uptake of [3H]CQ (% PfCRTDd2 control), trans-stimulation, PfCRTEcu1110, total [3H]CQ transport, [test solute]i = 45 mM (intracellular; 30 mM for some solutes due to solubility), mean ± SEM, SEM
  activity at 45000 µM: 36 ± 1.7%
